Experimental findings from US4689339A, “4-dihydroinden-2-yl-, 4-tetrahydronaphth-2-yl-, and 4-dihydrobenzofuran-2-ylimidazoles, useful to block α2 -adrenergic receptors” (Farmos Yhtyma oy, priority 1984, dated 1987) are described below.

Like-named read-outs stand apart in the source and are kept apart here.

One assay deals with T1, α2-receptors (Mus musculus, UniProt Q01338).
T1 construct: isolated, electrically stimulated mouse vas deferens preparation; from tissue; host or cells: mouse vas deferens
T1 sequence (Q01338 1-465): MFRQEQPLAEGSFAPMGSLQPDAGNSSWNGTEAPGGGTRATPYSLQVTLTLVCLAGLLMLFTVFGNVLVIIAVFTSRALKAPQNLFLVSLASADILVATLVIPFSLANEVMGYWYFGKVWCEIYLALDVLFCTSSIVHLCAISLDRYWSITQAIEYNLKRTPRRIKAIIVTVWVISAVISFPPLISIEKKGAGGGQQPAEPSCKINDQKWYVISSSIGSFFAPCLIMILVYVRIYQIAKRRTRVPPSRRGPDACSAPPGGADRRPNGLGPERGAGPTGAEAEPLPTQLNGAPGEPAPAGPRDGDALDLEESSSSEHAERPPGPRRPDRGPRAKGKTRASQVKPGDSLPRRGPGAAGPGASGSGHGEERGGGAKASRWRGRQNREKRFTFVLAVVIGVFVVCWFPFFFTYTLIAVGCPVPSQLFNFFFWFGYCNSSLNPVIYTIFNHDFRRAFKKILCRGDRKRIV
The assay is described as follows: α2-antagonism in vitro, isolated electrically stimulated mouse vas deferens (vs detomidine). Format: biochemical. The method, then: α2 -antagonism was determined by means of isolated, electrically stimulated mouse vas deferens preparation (Marshall et al., Br. J. Pharmac. 62, 147, 151, 1978). In this model, α2 -agonist (detomidine) blocks electrically stimulated muscular contractions and the effect of the α2 -antagonist is seen by administering it prior to the agonist and by determining its pA2 value. Known α2 -antagonists like yohimbine and rauwolscine were used as reference substances.

For assay [1], the target named is T2, α2-receptors of the central nervous system (Rattus norvegicus, UniProt P22909).
T2 construct: In anaesthetized rat, a standard dose of detomidine was administered intravenously; from tissue; host or cells: whole anaesthetized rat, in vivo (central nervous system)
T2 sequence (P22909 1-465): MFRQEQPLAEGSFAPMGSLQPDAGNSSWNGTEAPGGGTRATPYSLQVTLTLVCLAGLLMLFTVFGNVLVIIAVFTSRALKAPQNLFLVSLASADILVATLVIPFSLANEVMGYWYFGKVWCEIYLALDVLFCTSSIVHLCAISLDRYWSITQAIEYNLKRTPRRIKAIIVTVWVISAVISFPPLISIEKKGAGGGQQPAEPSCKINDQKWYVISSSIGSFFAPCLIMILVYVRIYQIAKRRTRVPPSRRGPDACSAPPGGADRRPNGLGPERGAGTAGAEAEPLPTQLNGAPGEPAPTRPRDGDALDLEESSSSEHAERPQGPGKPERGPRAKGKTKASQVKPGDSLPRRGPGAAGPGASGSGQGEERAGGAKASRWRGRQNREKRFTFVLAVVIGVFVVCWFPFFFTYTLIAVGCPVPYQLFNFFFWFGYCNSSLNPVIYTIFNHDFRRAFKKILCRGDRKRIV
The assay is described as follows: α2-antagonism in vivo, reversal of detomidine-induced mydriasis in anaesthetized rat. Particulars: iv. As to the method: The central α2 -blocking effect of the studied substances under in vivo conditions was studied using two methods. First, it is known that in the rat α2 -agonists induce dilatation of the pupil (mydriasis) which effect is transmitted via α2 -receptors of the central nervous system. In anaesthetized rat, a standard dose of detomidine was administered intravenously. Thereafter increasing doses of the studied antagonist were injected intravenously and the reversal of detomidine-induced mydriasis was followed. The ED50 value of the antagonist, i.e. the dose producing a 50 percent reversal, was determined.

Assay [2] concerns the target α1-receptors. The assay is described as follows: α1-agonism in vitro, isolated anococcygeus muscle (rat). Format: biochemical. Particulars: negative logarithm of the molar concentration producing 50 percent of maximal contraction. As to the method:
(§1) To obtain information also on the selectivity of the antagonist between α1 - and α2 -receptors, its ability to inhibit or stimulate α1 -receptors was determined by means of isolated anococcygeus muscle (rat). […] To determine α-antagonism, muscular contraction was induced by phenylephrine and the pA2 value of the studied compound was determined as above. α1 -agonist effect is presented as the pD2 value (negative logarithm of the molar concentration of the compound producing 50 percent of maximal contraction).

For another assay, the system named is α2-receptor. The assay is described as follows: α2-antagonism in the central nervous system, inhibition of detomidine induced potentiation of barbiturate sleeping time in mice. Particulars: detomidine 150 μg/kg ip. Format: in vivo, mouse. The source says: α2 -antagonism in the central nervous system was secondly studied by following the ability of the antagonist to inhibit detomidine induced sedation in the mouse. This was done by measuring the increase of barbiturate sleeping time induced by detomidine. This effect of detomidine is known to be induced through α2 -receptor activation. The antagonist can be studied by administering it prior to detomidine.

For assay [3], the target named is α1-receptors. Put plainly: α1-antagonism in vitro, isolated anococcygeus muscle (rat), contraction induced by phenylephrine. Format: biochemical. As to the method: as §1
Setting [4] is: antagonist given prior to detomidine, read-out: α2-antagonism (pA2 vs detomidine) mouse vas deferens (converted).

On to `CCC1(c2cnc[nH]2)Cc2ccc(C)cc2C1` (centres unmarked) [Compound XVII], for which the Kb at α2-receptors (setting [4]) was 251 nM.
For `Brc1ccc2c(c1)CC(c1cnc[nH]1)O2` (centres unmarked) [Compound III], in assay [1] (rat, in vivo), the “ED50, 50 percent reversal of detomidine-induced mydriasis” value (from here on “ED50, 50 percent reversal”) is 0.32 mg/kg. On α2-receptors (setting [4]), the Kb is 631 nM. The “α1-agonism (pD2) rat anococcygeus” value on α1-receptors [2] turned out to be 4.5.
Regarding `CCC1(c2cnc[nH]2)Cc2ccccc2C1` [Compound XV], the Kb at α2-receptors was 5.01 nM.
Take `Cc1ccc2c(c1)CC(c1cnc[nH]1)C2` (centres unmarked) [Compound IV]: in assay [1] (rat, in vivo), the “ED50, 50 percent reversal” value is 0.02 mg/kg. Besides, at α2-receptors, the Kb was 20 nM. For the same compound, the “α1-agonism (pD2) rat anococcygeus” value on α1-receptors [2] stood at 6.5.
Regarding `c1ccc2c(c1)CC(c1cnc[nH]1)C2` [Compound I], the “ED50, 50 percent reversal” value in assay [1] (rat, in vivo) was determined as 0.003 mg/kg. For the same compound, the “Effect on detomidine induced potentiation of the barbiturate sleeping time (± percent of controls)” value (shortened to “Effect … (± percent of controls)”) is listed as -20% of controls with α2-receptor (dose 0.1 mg/kg), -60% of controls in the assay on α2-receptor (dose 0.3 mg/kg) and -100% of controls in the assay with α2-receptor (dose 1 mg/kg). Moreover, the Kb at α2-receptors was 1.58 nM. Besides, the “α1-agonism (pD2) rat anococcygeus” value at α1-receptors [2] is 6.5.
Consider `c1ccc2c(c1)CC(c1cnc[nH]1)O2` (centres unmarked) [Compound II], for which the “ED50, 50 percent reversal” value in assay [1] (rat, in vivo) was found to be 0.07 mg/kg. Besides, the “Effect … (± percent of controls)” value is reported as -5% of controls in the assay on α2-receptor (dose 0.1 mg/kg); -30% of controls in the assay on α2-receptor (dose 0.3 mg/kg); -60% of controls with α2-receptor (dose 1 mg/kg); -70% of controls in the assay with α2-receptor (dose 3 mg/kg); -85% of controls with α2-receptor (dose 10 mg/kg). At α2-receptors, this compound gave a Kb of 31.6 nM. Besides, the “α1-agonism (pD2) rat anococcygeus” value on α1-receptors [2] worked out at 5.5.
Turning to `Cc1cccc2c1CC(c1cnc[nH]1)C2C` (centres unmarked) [Compound VII], the “ED50, 50 percent reversal” value in assay [1] (rat, in vivo) worked out at 0.1 mg/kg. At α2-receptors, this compound showed a Kb of 25.1 nM. The “α1-agonism (pD2) rat anococcygeus” value at α1-receptors [2] is 6.0.
With `Cc1ccc(N(CC2=NCCN2)c2cccc(O)c2)cc1` [Phentolamine, reference compound], in assay [1] (anaesthetized rat, standard iv dose of detomidine), the “ED50, 50 percent reversal” value came to 1 mg/kg.
Consider `Cc1ccc2c(c1)C(C)C(c1cnc[nH]1)C2` (centres unmarked) [Compound VIII], for which the “ED50, 50 percent reversal” value in assay [1] (rat, in vivo) was found to be 0.1 mg/kg. This compound also showed a Kb on α2-receptors of 25.1 nM. Also, the “α1-antagonism (pA2 vs phenylephrine) rat anococcygeus” value on α1-receptors [3] was determined as 5.9.
In the case of `CC1(c2cnc[nH]2)Cc2ccccc2C1` [Compound XII], the “ED50, 50 percent reversal” value in assay [1] (rat, in vivo) was 0.003 mg/kg. Also, the Kb on α2-receptors (setting [4]) was 7.94 nM. In addition, the “α1-agonism (pD2) rat anococcygeus” value on α1-receptors [2] is 5.5.
As to `COc1cc2nc(N3CCN(C(=O)c4ccco4)CC3)nc(N)c2cc1OC` [Prazosin], the “Effect … (± percent of controls)” value in the assay on α2-receptor (dose 0.1 mg/kg) is 0% of controls; in the assay on α2-receptor (dose 0.3 mg/kg), 0% of controls; in the assay on α2-receptor (dose 1 mg/kg), 0% of controls; with α2-receptor (dose 3 mg/kg), “+16% of controls”; with α2-receptor (dose 10 mg/kg) it was “+18% of controls”.
With `COC(=O)[C@@H]1[C@H]2C[C@H]3c4[nH]c5ccccc5c4CCN3C[C@@H]2CC[C@@H]1O` [Yohimbine], the “ED50, 50 percent reversal” value in assay [1] (rat, in vivo) stood at 0.2 mg/kg. Besides, the “Effect … (± percent of controls)” value in the assay on α2-receptor (dose 0.1 mg/kg) is listed as 0% of controls; in the assay with α2-receptor (dose 0.3 mg/kg), -18% of controls; with α2-receptor (dose 1 mg/kg), -64% of controls; in the assay with α2-receptor (dose 3 mg/kg) it was -70% of controls; in the assay with α2-receptor (dose 10 mg/kg) it was -100% of controls. On α2-receptors, this compound had a Kb of 7.94 nM. Besides, the “α1-antagonism (pA2 vs phenylephrine) rat anococcygeus” value at α1-receptors [3] is recorded as 6.6.
Turning to `CNC[C@H](O)c1cccc(O)c1` [Phenylephrine, reference compound], at α1-receptors [2], the “α1-agonism (pD2) rat anococcygeus” value is 6.5.
Compound `COC(=O)[C@H]1[C@H]2C[C@H]3c4[nH]c5ccccc5c4CCN3C[C@H]2CC[C@@H]1O` [Rauwolscine, reference compound] gave a Kb on α2-receptors of 7.94 nM. In addition, the “α1-antagonism (pA2 vs phenylephrine) rat anococcygeus” value on α1-receptors [3] is 6.3.
Compound `c1ccc2c(c1)CCC(c1cnc[nH]1)C2` (centres unmarked) [Compound XVIII] showed a Kb at α2-receptors of 20 nM. Moreover, the “α1-agonism (pD2) rat anococcygeus” value on α1-receptors [2] worked out at 6.0.
In the case of `CC1c2ccccc2CC1c1cnc[nH]1` (centres unmarked) [Compound VI], in assay [1] (rat, in vivo), the “ED50, 50 percent reversal” value turned out to be 0.1 mg/kg. Further, the Kb at α2-receptors was 2 nM. The “α1-agonism (pD2) rat anococcygeus” value at α1-receptors [2] was determined as 6.5.
